Results as given in patent publication US20160122320A1, “USEFUL COMBINATIONS OF MONOBACTAM ANTIBIOTICS WITH BETA-LACTAMASE INHIBITORS” (Basilea Pharmaceutica AG, priority 2005, published 2016).
Counter-ions that a name gives are not always drawn.

Experiments:
Experiment in all cases: MIC, NCCLS broth microdilution
Type in all cases: cell-based
[1] = tested on: Enterobacter cloacae P99; conditions: for MIC of antibiotic at fixed inhibitor concentration (4 mg/L): MIC of antibiotic compound 1 with the labelled bridged monobactam of formula II and clavulanate, 4 mg/L each
Experimental: Antimicrobial activity of the compounds and of their combinations was determined against a selection of organisms according to the standard procedures described by the National Committee for Clinical Laboratory Standards (National Committee for Clinical Laboratory. Standards (2000). Methods for Dilution Antimicrobial Susceptibility Tests for Bacteria That Grow Aerobically-Fifth Edition: Approved Standard M7-A5. NCCLS, Wayne, Pa., USA).
In all cases the final concentration of DMSO incubated with the bacteria is less than or equal to 1%. […] Plates were incubated overnight at an appropriate temperature (30° C. or 37° C.) and optical densities assessed by eye. The MIC value is defined as the lowest compound concentration completely inhibiting visible growth of the test organism. When combinations between compounds of formula I with compounds of formula II and are evaluated the compounds of formula I are tested in dilution series as described above while the compounds of formula II and III-XIII were present in all wells at a constant concentration of 4 μg/mL each.

[2] = tested on: Serratia marcescens S6; conditions: for MIC of antibiotic at fixed inhibitor concentration (4 mg/L): MIC of antibiotic compound 1 with the labelled bridged monobactam of formula II and clavulanate, 4 mg/L each
[3] = tested on: Pseudomonas aeruginosa MK1184; conditions: for MIC of antibiotic at fixed inhibitor concentration (4 mg/L): MIC of antibiotic compound 1 with the labelled bridged monobactam of formula II and clavulanate, 4 mg/L each
[4] = tested on: Acinetobacter sp. J2; conditions: for MIC of antibiotic at fixed inhibitor concentration (4 mg/L): Acinetobacter sp. J2, MIC of antibiotic compound 1 with the labelled bridged monobactam of formula II and clavulanate, 4 mg/L each
[5] = tested on: Pseudomonas aeruginosa 1973E; conditions: for MIC of antibiotic at fixed inhibitor concentration (4 mg/L): MIC of antibiotic compound 1 with the labelled bridged monobactam of formula II and clavulanate, 4 mg/L each
Procedure, shortened: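 Broth microdilution following NCCLS M7-A5, with final DMSO ≤1%. Plates were incubated overnight at 30° C. or 37° C. and growth was read by eye; MIC is the lowest concentration giving complete inhibition of visible growth. In combination tests the formula I compound was serially diluted while partner compounds were held at 4 μg/mL each.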

[6] = tested on: Klebsiella pneumoniae CF104; conditions: for MIC of antibiotic at fixed inhibitor concentration (4 mg/L): MIC of antibiotic compound 1 with the labelled bridged monobactam of formula II and clavulanate, 4 mg/L each
[7] = tested on: Stenotrophomonas malthophilia 1AC736; conditions: for MIC of antibiotic at fixed inhibitor concentration (4 mg/L): Stenotrophomonas malthophilia 1AC736, MIC of antibiotic compound 1 with the labelled bridged monobactam of formula II and clavulanate, 4 mg/L each

Question: With O=C(Nc1cccc(O)c1)N1CC[C@@H]2[C@H]1C(=O)N2S(=O)(=O)[O-].[Na+] [Compound 317] as the compound, how does the “MIC of antibiotic at fixed inhibitor concentration (4 mg/L)” value [1] read?
Answer: The value was 8 µg/mL.

Question: What about the “MIC of antibiotic at fixed inhibitor concentration (4 mg/L)” value [2] of the same compound?
Answer: The value was 0.25 µg/mL.

Question: And the “MIC of antibiotic at fixed inhibitor concentration (4 mg/L)” value [3]?
Answer: Its value is >32 µg/mL.

Question: What about the “MIC of antibiotic at fixed inhibitor concentration (4 mg/L)” value [4] of the same compound?
Answer: The value was 16 µg/mL.

Question: What about the “MIC of antibiotic at fixed inhibitor concentration (4 mg/L)” value [5] of the same compound?
Answer: Its value is 8 µg/mL.

Question: What about the “MIC of antibiotic at fixed inhibitor concentration (4 mg/L)” value [6] of the same compound?
Answer: The value was 0.5 µg/mL.

Question: What about the “MIC of antibiotic at fixed inhibitor concentration (4 mg/L)” value [7] of the same compound?
Answer: The value was 0.125 µg/mL.

Question: Which results are given for O=C(C[n+]1cccc(-c2ccccc2)c1)N1CC[C@@H]2[C@H]1C(=O)N2S(=O)(=O)[O-] [Compound 124, (1S,5R)-7-oxo-2-[2-(3-phenylpyridinium)acetyl]-2,6-diazabicyclo[3.2.0]heptane-6-sulfonate, inner salt]?
Answer: MIC of antibiotic at fixed inhibitor concentration (4 mg/L) [1]: 32 µg/mL; MIC of antibiotic at fixed inhibitor concentration (4 mg/L) [2]: 0.25 µg/mL; MIC of antibiotic at fixed inhibitor concentration (4 mg/L) [3]: 32 µg/mL; MIC of antibiotic at fixed inhibitor concentration (4 mg/L) [4]: >32 µg/mL; MIC of antibiotic at fixed inhibitor concentration (4 mg/L) [5]: 8 µg/mL; MIC of antibiotic at fixed inhibitor concentration (4 mg/L) [6]: 0.125 µg/mL; MIC of antibiotic at fixed inhibitor concentration (4 mg/L) [7]: 0.125 µg/mL

Question: For C[C@H]1[C@H](NC(=O)/C(=N\OCc2cc(=O)c(O)cn2O)c2nc(N)sc2Cl)C(=O)N1OS(=O)(=O)O [Compound 29, (3S,4S)-3-{(2Z)-2-(2-amino-5-chloro(1,3-thiazol-4-yl))-3-[(1,5-dihydroxy-4-oxo(2-hydropyridyl))methoxy]-3-azaprop-2-enoylamino}-4-methyl-2-oxoazetidinyl hydroxysulfonate], which MIC of antibiotic ([1]; antibiotic alone, no inhibitor) is on record?
Answer: The MIC of antibiotic was >32 µg/mL.

Question: What about the “MIC of antibiotic at fixed inhibitor concentration of 4 mg/L” value ([1]; with 102 and clavulanate) of the same compound?
Answer: The value was 0.25 µg/mL.

Question: What about the “MIC of antibiotic at fixed inhibitor concentration of 4 mg/L” value ([1]; with 102 and sulbactam) of the same compound?
Answer: The value was 8 µg/mL.

Question: And the “MIC of antibiotic at fixed inhibitor concentration of 4 mg/L” value ([1]; with 323 and sulbactam)?
Answer: Its value is 8 µg/mL.

Question: What about the MIC of antibiotic ([2]; antibiotic alone, no inhibitor) of the same compound?
Answer: The MIC of antibiotic was 32 µg/mL.

Question: What about the “MIC of antibiotic at fixed inhibitor concentration of 4 mg/L” value ([2]; with 102 and clavulanate) of the same compound?
Answer: The value was 1 µg/mL.

Question: And the “MIC of antibiotic at fixed inhibitor concentration of 4 mg/L” value ([2]; with 102 and sulbactam)?
Answer: Its value is 8 µg/mL.

Question: What about the “MIC of antibiotic at fixed inhibitor concentration of 4 mg/L” value ([2]; with 323 and sulbactam) of the same compound?
Answer: Its value is 8 µg/mL.

Question: And the MIC of antibiotic ([3]; antibiotic alone, no inhibitor)?
Answer: The MIC of antibiotic was >32 µg/mL.

Question: And the “MIC of antibiotic at fixed inhibitor concentration of 4 mg/L” value ([3]; with 102 and clavulanate)?
Answer: The value was 8 µg/mL.

Question: And the “MIC of antibiotic at fixed inhibitor concentration of 4 mg/L” value ([3]; with 102 and sulbactam)?
Answer: Its value is 4 µg/mL.

Question: What about the “MIC of antibiotic at fixed inhibitor concentration of 4 mg/L” value ([3]; with 323 and sulbactam) of the same compound?
Answer: The value was 8 µg/mL.

Question: And the MIC of antibiotic ([4]; Acinetobacter baumannii J2, antibiotic alone, no inhibitor)?
Answer: The MIC of antibiotic was >32 µg/mL.

Question: And the “MIC of antibiotic at fixed inhibitor concentration of 4 mg/L” value ([4]; Acinetobacter baumannii J2, with 102 and clavulanate)?
Answer: Its value is >32 µg/mL.

Question: And the “MIC of antibiotic at fixed inhibitor concentration of 4 mg/L” value ([4]; Acinetobacter baumannii J2, with 102 and sulbactam)?
Answer: Its value is 2 µg/mL.

Question: What about the “MIC of antibiotic at fixed inhibitor concentration of 4 mg/L” value ([4]; Acinetobacter baumannii J2, with 323 and sulbactam) of the same compound?
Answer: Its value is 2 µg/mL.

Question: What about the MIC of antibiotic ([5]; antibiotic alone, no inhibitor) of the same compound?
Answer: Its MIC of antibiotic is 4 µg/mL.

Question: And the “MIC of antibiotic at fixed inhibitor concentration of 4 mg/L” value ([5]; with 102 and clavulanate)?
Answer: Its value is 8 µg/mL.

Question: And the “MIC of antibiotic at fixed inhibitor concentration of 4 mg/L” value ([5]; with 102 and sulbactam)?
Answer: The value was 8 µg/mL.

Question: And the “MIC of antibiotic at fixed inhibitor concentration of 4 mg/L” value ([5]; with 323 and sulbactam)?
Answer: Its value is 8 µg/mL.

Question: And the MIC of antibiotic ([6]; antibiotic alone, no inhibitor)?
Answer: Its MIC of antibiotic is >32 µg/mL.

Question: What about the “MIC of antibiotic at fixed inhibitor concentration of 4 mg/L” value ([6]; with 102 and clavulanate) of the same compound?
Answer: Its value is 0.5 µg/mL.

Question: And the “MIC of antibiotic at fixed inhibitor concentration of 4 mg/L” value ([6]; with 102 and sulbactam)?
Answer: The value was 2 µg/mL.

Question: What about the “MIC of antibiotic at fixed inhibitor concentration of 4 mg/L” value ([6]; with 323 and sulbactam) of the same compound?
Answer: The value was 2 µg/mL.

Question: What about the MIC of antibiotic ([7]; Stenotrophomonas maltophilia 1AC736, antibiotic alone, no inhibitor) of the same compound?
Answer: The MIC of antibiotic was 1 µg/mL.

Question: And the “MIC of antibiotic at fixed inhibitor concentration of 4 mg/L” value ([7]; Stenotrophomonas maltophilia 1AC736, with 102 and clavulanate)?
Answer: Its value is 0.5 µg/mL.

Question: And the “MIC of antibiotic at fixed inhibitor concentration of 4 mg/L” value ([7]; Stenotrophomonas maltophilia 1AC736, with 102 and sulbactam)?
Answer: Its value is 1 µg/mL.

Question: What about the “MIC of antibiotic at fixed inhibitor concentration of 4 mg/L” value ([7]; Stenotrophomonas maltophilia 1AC736, with 323 and sulbactam) of the same compound?
Answer: Its value is 1 µg/mL.
